Results from patent US12686711B2, “DARIC interleukin receptors” (Regeneron Pharmaceuticals, Inc., priority 2017, dated 2026).

Legend:
[1] = target or test not stated; chemically modified non-immunosuppressive rapamycin analogue; cited from earlier work
donor PBMCs = experiment: IFNγ production in IL-12 pre-treated transduced and untransduced donor PBMCs; format: cell-based; conditions: untransduced controls and IL-18R-DARIC-GFP transduced cells; pre-treated 50 ng/mL human recombinant IL-12 for 24 hours, then medium with 100 ng/mL human recombinant IL-18; FIG. 2
Excerpt: IL-18 receptor (IL-18R) DARIC binding and signaling components were designed, constructed, and verified. An IL-18R DARIC lentiviral vector was constructed comprising an MNDU3 promoter operably linked to a polynucleotide encoding: a DARIC signaling component (CD8α-signal peptide, an FRB variant (T82L), and an IL-18R1 transmembrane and signaling domain); a P2A sequence; and a DARIC binding component (an Igκ-signal peptide, an FKBP12 domain, and a IL-18RAP transmembrane and signaling domain). An IL-18R DARIC-GFP lentiviral vector was constructed by appending another polynucleotide encoding a P2A sequence and GFP to the to the polynucleotide encoding the IL-18R1 signaling domain in aforementioned vector. See, e.g., SEQ ID NOs: 1-4.
Donor PBMCs were transduced with LVV encoding IL-18R-DARIC-GFP. Transduced PBMCs and untransduced control PBMCs were pre-treated with 50 ng/mL human recombinant IL-12 for 24 hours. The treated cells were washed and cultured in medium only, medium with 100 ng/mL human recombinant IL-18 or medium with 1 nM rapamycin. […] FIG. 2.

| Molecule | IC50 [1] | IFNγ production when cultured in IL-18 (donor PBMCs) |
| --- | --- | --- |
| CO[C@H]1[C@@H](O)[C@H](C)C[C@H](C)/C=C/C=C/C=C(\C)[C@@H](c2c[nH]c3c(C)cccc23)C[C@@H]2CC[C@@H](C)[C@@](O)(O2)C(=O)C(=O)N2CCCC[C@H]2C(=O)O[C@H]([C@H](C)C[C@@H]2CC[C@@H](O)[C@H](OC)C2)C[C@H](O)[C@H](C)/C=C(\C)[C@H]1O [AP21967, C-16-(S)-7-methylindolerapamycin] | 10 nM | – |
| IL-18: human recombinant IL-18 cytokine used as positive control | – | increased IFNγ production in both untransduced controls and cells transduced with IL-18R-DARIC-GFP |
